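Growth conditions: 96-well plates. Treatment: test compound, 48 hours, 5 concentrations. Analysis: linear interpolation between bracketing concentrations; unreached endpoints set to highest concentration. Here, GI50 denotes the concentration required for 50% inhibition of growth.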 The source made the active and inactive calls. Cut-off read from the data, not from the text of the source: active = GI50 up to about 1.1 µM and inactive = higher.
What was measured:
Experiment in all cases: NCI tumour cell line growth inhibition, 48 h
HCT-15 = test system: HCT-15
IGROV-1 = test system: IGROV-1
HOP-92 = test system: HOP-92
RXF 393 = test system: RXF 393
SNB-75 = test system: SNB-75
UO-31 = test system: UO-31
HOP-62 = test system: HOP-62
SF-268 = test system: SF-268
OVCAR-5 = test system: OVCAR-5
A498 = test system: A498
HCT-116 = test system: HCT-116
SW-620 = test system: SW-620
MOLT-4 = test system: MOLT-4
OVCAR-3 = test system: OVCAR-3
MDA-MB-435 = test system: MDA-MB-435
NCI/ADR-RES = test system: NCI/ADR-RES
Malme-3M = test system: Malme-3M
SF-539 = test system: SF-539
RPMI-8226 = test system: RPMI-8226

SMILES | GI50 (HCT-15) [µM] | GI50 (IGROV-1) | GI50 (HOP-92) | GI50 (RXF 393) | GI50 (SNB-75) | GI50 (UO-31) | GI50 (HOP-62) | GI50 (SF-268) | GI50 (OVCAR-5) | GI50 (A498) | GI50 (HCT-116) | GI50 (SW-620) | GI50 (MOLT-4) | GI50 (OVCAR-3) | GI50 (MDA-MB-435) | GI50 (NCI/ADR-RES) | GI50 (Malme-3M) | GI50 (SF-539) | GI50 (RPMI-8226)
C/N=C(\SC)N(C)c1nc(=[N+](C)C)ss1.[O-][Cl+3]([O-])([O-])[O-] | > 100 | > 100 µM (inactive) | > 100 µM (inactive) | > 100 µM (inactive) | 3.81 µM (inactive) | 42.2 µM (inactive) | > 100 µM (inactive) | > 100 µM (inactive) | > 100 µM (inactive) | 4.61 µM (inactive) | > 100 µM (inactive) | 31.6 µM (inactive) | 9.53 µM (inactive) | – | – | – | – | – | –
O=P1(Cc2ccccc2)N(Cc2ccccc2)[C@@H]2CCCC[C@H]2N1Cc1ccccc1 | 9.91 | 6.18 µM (inactive) | – | 9.51 µM (inactive) | 6.79 µM (inactive) | 6.52 µM (inactive) | 15.5 µM (inactive) | 11.1 µM (inactive) | 11.6 µM (inactive) | – | 6.73 µM (inactive) | 10.1 µM (inactive) | 2.72 µM (inactive) | 7.23 µM (inactive) | 5.96 µM (inactive) | 5.85 µM (inactive) | 17.9 µM (inactive) | 17 µM (inactive) | –
CCNC(=O)O/N=C1/C=C2CC[C@@H]3C(CC[C@@]4(C)C3CC[C@@H]4OC(=O)NCC)[C@@]2(C)CC1 (stereo partly specified) | 2.77 | 7.5 µM (inactive) | 4.43 µM (inactive) | 1.62 µM (inactive) | 2.09 µM (inactive) | 1.78 µM (inactive) | 11.4 µM (inactive) | – | 6.78 µM (inactive) | > 100 µM (inactive) | 3.67 µM (inactive) | 3.02 µM (inactive) | 2.36 µM (inactive) | – | – | – | – | 4.32 µM (inactive) | 2.52 µM (inactive)
Cc1ccc(NC(=O)SCCC(=O)O)cc1NC(=O)SCCC(=O)O | > 100 | > 100 µM (inactive) | – | > 100 µM (inactive) | – | > 100 µM (inactive) | > 100 µM (inactive) | > 100 µM (inactive) | > 100 µM (inactive) | > 100 µM (inactive) | > 100 µM (inactive) | > 100 µM (inactive) | > 100 µM (inactive) | > 100 µM (inactive) | – | – | – | > 100 µM (inactive) | > 100 µM (inactive)
CCN(CC)CCC(=O)NC1c2ccc(Cl)cc2Oc2c(C)cccc21 (stereo unspecified) | 18.7 | 13 µM (inactive) | 25.8 µM (inactive) | – | 10.2 µM (inactive) | 8.89 µM (inactive) | > 10 µM (inactive) | 8.53 µM (inactive) | 15.6 µM (inactive) | – | 16.3 µM (inactive) | 16.7 µM (inactive) | 18.6 µM (inactive) | 15.5 µM (inactive) | 15.1 µM (inactive) | 16.8 µM (inactive) | – | 13.2 µM (inactive) | 24.9 µM (inactive)
C=C(COC(=O)C(C)C)[C@H]1Oc2ccc(C(C)=O)cc2[C@@H]1OC(=O)C(C)C | > 100 | > 100 µM (inactive) | – | > 100 µM (inactive) | > 100 µM (inactive) | > 100 µM (inactive) | > 100 µM (inactive) | > 100 µM (inactive) | > 100 µM (inactive) | – | > 100 µM (inactive) | > 100 µM (inactive) | > 100 µM (inactive) | > 100 µM (inactive) | > 100 µM (inactive) | – | > 100 µM (inactive) | > 100 µM (inactive) | 76.4 µM (inactive)
COc1ccc(O)c(/C=N/CCC/N=C/c2cc(OC)ccc2O)c1 | 18.1 | 34.4 µM (inactive) | 20.2 µM (inactive) | 25.6 µM (inactive) | 18.3 µM (inactive) | 33.5 µM (inactive) | 52.1 µM (inactive) | – | 38.3 µM (inactive) | 8.91 µM (inactive) | 40.8 µM (inactive) | 39 µM (inactive) | 16.6 µM (inactive) | 6.59 µM (inactive) | 22.6 µM (inactive) | – | 13.7 µM (inactive) | – | 11.7 µM (inactive)
O=c1cccccc1NCCCCCCCNc1cccccc1=O | 35.2 | 54.2 µM (inactive) | 41.6 µM (inactive) | 7.74 µM (inactive) | 95.9 µM (inactive) | 25.3 µM (inactive) | > 100 µM (inactive) | 43.5 µM (inactive) | 77.1 µM (inactive) | – | 37.2 µM (inactive) | 52 µM (inactive) | 17 µM (inactive) | 24.5 µM (inactive) | – | – | 29.2 µM (inactive) | 91.4 µM (inactive) | 13.8 µM (inactive)
CO/C(=N\N=C\c1cccc(Cl)c1)c1ccncc1 | > 10 | – | > 10 µM (inactive) | > 10 µM (inactive) | – | > 10 µM (inactive) | > 10 µM (inactive) | > 10 µM (inactive) | > 10 µM (inactive) | – | > 10 µM (inactive) | > 10 µM (inactive) | > 10 µM (inactive) | > 10 µM (inactive) | > 10 µM (inactive) | > 10 µM (inactive) | > 10 µM (inactive) | – | > 10 µM (inactive)

Reference: ChEMBL document CHEMBL1201862, “PubChem BioAssay data set” (2004)
